Patent US20260306460A1, “COMPOSITION FOR REMOVING AND INHIBITING SENESCENT CELLS, AND USES THEREOF” (LIFECEUTIX CO., LTD., priority 2023, published 2026)

Experiments:
[1] = test system: naturally aged mice; assay: Anti-aging evaluation in naturally aged mice, Example 31, Table 55; type: in vivo, mouse; details: for Femur Ctsk mRNA / Kidney Agtr1a mRNA / Liver IL6 mRNA / Liver MMP3 mRNA / Liver p16 mRNA / Open Field Test Time in Center: untreated = 100%; for Heart Sur2a mRNA / Joint Col2a1 mRNA / Skin Col1a1 mRNA / Skin SDF1 mRNA: untreated = 1.0; for Muscle Mass: untreated 0.64 g; for Fat Mass: untreated 0.82 g; for Cataract incidence: untreated 83%;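 on all read-outs here: Vehicle-dosed control mice received solution alone at matching volume, values compare test-compound-treated aged mice against that control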
[2] = test system: senescent cells; assay: Viability of senescent cells (CellTiter-Glo), Example 17, Table 13; details: Homo sapiens, read-out: Survival (%)
Experimental: Cells induced to undergo senescence by doxorubicin treatment were treated with test compound at designated concentrations and measured using the CellTiter-Glo Luminescent Cell Viability Assay (Promega).

[3] = test system: bleomycin-induced pulmonary fibrosis mice; assay: Bleomycin-induced pulmonary fibrosis mice, Example 31, Table 56; type: in vivo, mouse; details: untreated = 100%
Experimental: (§1) The control group was administered only the solution in the same volume. After the end of drug administration, the method described in each example below was performed. Liver, kidney, skin, knee joint, heart, and femur tissues were collected from mice in which natural aging was induced in the same manner as in Examples 7-2 and 7-6 of WO2023-085787 A1. Lung tissues were collected from mice in which pulmonary fibrosis was induced using the same method as in Example 24-1. Liver tissues were collected from mice in which hepatic fibrosis was induced using the same method as in Example 26, and total RNA was extracted. qRT-PCR was performed and analyzed using the synthesized cDNA. […] The mRNA amounts of p16, MMP3, and IL6 after natural aging was induced were calculated as 100% and compared with the mRNA amounts of p16, MMP3, and IL6 after treatment with the test compound. In addition, an open field test for the analysis of aging-related frailty, agtr1a mRNA analysis for kidney damage and disease evaluation, col1a1 and SDF1 mRNA analysis for skin aging evaluation such as wrinkles/loss of elasticity/hyperpigmentation, col2a1 mRNA analysis for evaluating joint aging such as osteoarthritis, sur2a mRNA analysis for evaluating cardiac aging such as decreased cardiac load resistance, ctsk mRNA analysis for evaluating bone diseases due to aging such as osteoporosis, muscle tissue weight for analyzing sarcopenia, fat tissue weight for analyzing lipoatrophy, and cataract incidence analysis were performed in mice. For cataract incidence analysis, the drug was administered twice a week under the conditions specified above, and biweekly examinations were conducted until death.
The table below quantitatively presents the evaluation results for each item in mice with bleomycin-induced pulmonary fibrosis, untreated and treated with the test compound.

[4] = test system: senescent A549 cells; assay: Viability of senescent A549 cells (CellTiter-Glo), Example 18, Table 15; details: Homo sapiens, A549, read-out: Survival (%)
Experimental: Senescence-induced cancer cells treated with doxorubicin were treated with the test compound at designated concentrations, and cell viability was measured using the CellTiter-Glo Luminescent Cell Viability Assay (Promega).

[5] = test system: carbon tetrachloride-induced liver fibrosis mice; assay: Carbon tetrachloride-induced liver fibrosis mice, Example 31, Table 57; type: in vivo, mouse; details: CCl4-induced liver fibrosis mice, untreated = 100%
Experimental: as §1

| SMILES | Femur Ctsk mRNA [1] | Heart Sur2a mRNA [1] | Joint Col2a1 mRNA [1] | Kidney Agtr1a mRNA [1] | Liver IL6 mRNA [1] | Liver MMP3 mRNA [1] | Liver p16 mRNA [1] | Open Field Test Time in Center [1] | Skin Col1a1 mRNA [1] | Skin SDF1 mRNA [1] | Muscle Mass [1] | Fat Mass [1] | Cataract incidence [1] | viability at 1.1 µM [2] | viability at 10 µM [2] | Lung p16 mRNA [3] | Col1a1 mRNA [3] | viability at 1.1 µM [4] | viability at 10 µM [4] | Liver p16 mRNA [5] | other results |
| --- | --- | --- | --- | --- | --- | --- | --- | --- | --- | --- | --- | --- | --- | --- | --- | --- | --- | --- | --- | --- | --- |
| CCN(CC1C(=O)C2CCN1CC2)C(=O)C(Cl)(Cl)Cl (stereo not drawn) [LX-5702] | 61% | 2.5 fold | 2.4 fold | 49% | 49% | 55% | 47% | 211% | 1.8 Fold | 2.0 fold | 0.70 g | 0.85 g | 66% | 97.5% | 5.2% | 61 (±6.2) % | 68 (±7.5) % | 91.8% | 38.1% | 72 (±3.9) % | viability at 30 µM [4]: 3.9%; Col1a1 mRNA [5]: 65 (±7.2) % |
| CC12CCN(CC1)C(CNC(=O)C(F)(F)F)C2=O (stereo not drawn) [LX-5706] | 68% | 2 fold | 1.9 fold | 70% | 71% | 60% | 64% | 171% | 1.6 Fold | 1.4 fold | 0.69 g | 0.85 g | 74% | 96.5% | 12.7% | 76 (±6.1) % | 79 (±5.2) % | 88.5% | 31% | 69 (±6.9) % | viability at 30 µM [4]: 0.3%; Col1a1 mRNA [5]: 70 (±4.8) % |
| CC12CCN(CC1)C(CN(C1CC1)S(C)(=O)=O)C2=O (stereo not drawn) [LX-5707] | 64% | 2.3 fold | 2.0 fold | 65% | 61% | 63% | 59% | 199% | 1.7 Fold | 1.6 fold | 0.70 g | 0.90 g | 70% | 103% | 27.3% | 72 (±8.9) % | 69 (±7.1) % | 81% | 37.3% | 64 (±8.3) % | viability at 30 µM [4]: 4.3%; Col1a1 mRNA [5]: 72 (±9.6) % |
| O=C1C2CCN(CC2)C1(CO)COCc1ccccc1 (stereo not drawn) [LX-5711] | 62% | 2.3 fold | 2.3 fold | 63% | 48% | 61% | 65% | 191% | 1.5 Fold | 1.8 fold | 0.68 g | 0.93 g | 72% | 95.1% | 63.7% | 70 (±3.8) % | 71 (±4.0) % | 89% | 52.5% | 63 (±4.3) % | viability at 30 µM [2]: 20.6%; viability at 30 µM [4]: 11.9%; Col1a1 mRNA [5]: 74 (±3.0) % |
| [2H]C([2H])([2H])OCC1(CO)C(=O)C2CCN1CC2 (stereo not drawn) [LX-5721] | 63% | 2.7 fold | 2.0 fold | 59% | 54% | 72% | 41% | 218% | 1.7 Fold | 1.7 fold | 0.68 g | 0.97 g | 71% | 98.5% | 45.5% | 65 (±5.6) % | 78 (±4.7) % | 106% | 17.8% | 52 (±9.6) % | viability at 30 µM [2]: 13.4%; Col1a1 mRNA [5]: 80 (±9.3) % |
| [2H]C12CCN(CC1)C(CO)(COC)C2=O (stereo not drawn) [LX-5722] | 59% | 2.4 fold | 2.1 fold | 52% | 73% | 63% | 46% | 222% | 1.8 Fold | 1.6 fold | 0.70 g | 1.03 g | 69% | 91.5% | 34.1% | 73 (±5.5) % | 78 (±7.2) % | 99% | 4.1% | 69 (±6.2) % | viability at 30 µM [2]: 1.8%; Col1a1 mRNA [5]: 76 (±6.4) % |
| CN(NC(=O)CC(=O)NN(C)C(=S)c1ccccc1)C(=S)c1ccccc1 [LX-6501, Elesclomol] | 64% | 1.8 fold | 2.7 fold | 49% | 46% | 56% | 38% | 214% | 1.9 Fold | 2.2 fold | 0.71 g | 0.89 g | 48% | 94.5% | 71.5% | 68 (±4.4) % | 75 (±5.3) % | 97% | 62.4% | 34 (±3.0) % | viability at 30 µM [2]: 7.8%; viability at 30 µM [4]: 13%; Col1a1 mRNA [5]: 75 (±2.5) % |
| NC(=O)c1ncn([C@@H]2O[C@H](CO)[C@@H](O)[C@H]2O)n1 [LX-6537, Ribavirin] | 67% | 1.6 fold | 2.2 fold | 73% | 48% | 67% | 74% | 177% | 1.9 Fold | 1.4 fold | 0.68 g | 0.85 g | 72% | 90.9% | 67.3% | 64 (±3.2) % | 67 (±3.9) % | 102% | 66.8% | 77 (±5.7) % | viability at 30 µM [2]: 12.2%; viability at 30 µM [4]: 2.4%; Col1a1 mRNA [5]: 81 (±4.1) % |
| C=C1CC[C@@H]2[C@](C)(CO)[C@H](O)CC[C@@]2(C)[C@@H]1C/C=C1/C(=O)OC[C@H]1O [LX-6800, Andrographolide] | 58% | 2.3 fold | 2.4 fold | 78% | 56% | 77% | 73% | 154% | 2.1 Fold | 2.0 fold | 0.70 g | 0.91 g | 75% | 81.6% | 56.5% | 78 (±3.8) % | 62 (±3.6) % | 80.9% | 70.9% | 80 (±4.9) % | viability at 30 µM [2]: 2.2%; viability at 30 µM [4]: 43.8%; viability at 90 µM [4]: 17%; Col1a1 mRNA [5]: 76 (±2.7) % |
| C[S+]([O-])CCCCN=C=S (stereo not drawn) [LX-7103, Sulforaphane] | 65% | 2.1 fold | 2.3 fold | 67% | 67% | 79% | 65% | 218% | 2.6 Fold | 2.6 fold | 0.67 g | 0.96 g | 69% | 84.3% | 7.9% | 65 (±2.1) % | 66 (±4.5) % | 102% | 37.6% | 70 (±2.2) % | viability at 30 µM [4]: 4.1%; Col1a1 mRNA [5]: 68 (±2.9) % |
